Assay results published in ChEMBL document CHEMBL4196095, “Design and synthesis of novel pyrrolo[2,3-a]carbazoles: 7-Chloro-2-oxo-3a-(2'-oxo-2',3'-dihydro-1'H-indol-3'-yl)-2,3,3a,4,5,10-hexahydro-pyrrolo[3,2-a]carbazole-1-carbonitrile as an efficient anticancer agent” (Eur J Med Chem, 2018).
≈ marks a conversion by molar mass, not a printed value.

How the values were obtained:
HCT-15 = test: Cytotoxicity against human HCT15 cells assessed as reduction in cell viability after 24 hrs by MTT assay; format: functional, cell-based; settings: HCT-15, 24 h
[1] = Antioxidant activity assessed as DPPH radical scavenging activity incubated under dark condition for 30 mins; format: functional

Row | SMILES | IC50 (HCT-15) | IC50 [1]
1 | Cc1cccc2c3c([nH]c12)C1=C(C#N)C(=O)NC1(C1C(=O)Nc2ccccc21)CC3 (configuration not stated) | 31.6 µM | 28.918 µg/mL (≈ 73.3 µM)
2 | Cc1cccc2c3c([nH]c12)C1=C(C#N)C(=O)NC1(C1c2ccccc2-c2nc4ccccc4nc21)CC3 (configuration not stated) | 23.7 µM | 33.936 µg/mL (≈ 70.8 µM)
3 | Cc1ccc2[nH]c3c(c2c1)CCC1(C2c4ccccc4-c4nc5ccccc5nc42)NC(=O)C(C#N)=C31 (configuration not stated) | 35.9 µM | 42.31 µg/mL (≈ 88.2 µM)
4 | Cc1cccc2c3c([nH]c12)C1=C(C#N)C(=O)NC1(C1C(=O)c2cccc4cccc1c24)CC3 (configuration not stated) | 46.5 µM | > 100 µg/mL
5 | Cc1ccc2[nH]c3c(c2c1)CCC1(C2C(=O)Nc4ccccc42)NC(=O)C(C#N)=C31 (configuration not stated) | 47.4 µM | 41.934 µg/mL (≈ 106 µM)
6 | Cc1ccc2c3c([nH]c2c1)C1=C(C#N)C(=O)NC1(C1C(=O)Nc2ccc(Cl)cc21)CC3 (configuration not stated) | 15.8 µM | 13.931 µg/mL (≈ 32.5 µM)
7 | Cc1ccc2c3c([nH]c2c1)C1=C(C#N)C(=O)NC1(C1c2ccccc2-c2nc4cc(C)c(C)cc4nc21)CC3 (configuration not stated) | 50.2 µM | 40.037 µg/mL (≈ 78.9 µM)
8 | Cc1ccc2c3c([nH]c2c1)C1=C(C#N)C(=O)NC1(C1C(=O)c2cccc4cccc1c24)CC3 (configuration not stated) | 31.6 µM | 28.251 µg/mL (≈ 65.8 µM)
9 | O=C1O[C@H]([C@@H](O)CO)C(O)=C1O [ASCORBIC ACID] |  | 13.228 µg/mL (≈ 75.1 µM)
